# Values quoted from earlier work as cited in patent US7192914B1, “Prevention of atherosclerosis and undesired blood clotting by reducing von Willebrand factor” (The Regents of the University of California, priority 1999, dated 2007).
# Tested on: human endothelial cells
# Conditions: human endothelial cells treated with tunicamycin; Wagner et al. (1986) J. Cell Biol. 102: 1320-4
substance,measurement,value
tunicamycin,effect on secreted vWF,absence of secreted vWF
